Reference: patent US20240384344A1, “METHOD FOR LABELING CELLS” (RIKEN, priority 2022, published 2024)

Experiments:
[1] = molecular target: mouse E-cadherin (CDH1) (mouse) (UniProt P09803); assay: flow cytometry, undifferentiated mouse R1 ES cells, biotinylated anti-CDH1 antibody then PE-conjugated TotalSeq streptavidin
[2] = molecular target: mouse E-cadherin (CDH1) (mouse) (UniProt P09803); assay: flow cytometry, differentiated R1 ES cells (only a part of them expresses CDH1), biotinylated anti-CDH1 antibody then PE-conjugated TotalSeq streptavidin
[3] = system: undifferentiated mouse ES cells (R1 line); assay: Flow cytometry of labeling efficiency (PE-positive cells), USB method vs Ab method; format: cell-based; conditions: TotalSeq PE streptavidin detection
Procedure: Single cells containing 0.5-2×10^6 […] CELLs prepared in “3. […] After incubation on ice, 3 mL ice-cold PBS containing 3% FBS was added to the reaction, and the cells were centrifuged at 4° C., 300 g for 5 minutes. The cells were further washed twice with Cell Staining Buffer (BioLegend, Inc., 420201), and then kept on ice until barcoded oligo DNA binding in the next step. Single cells containing 0.5-2×10^6 […] CELLs prepared in “3. […] An ice-cold primary antibody solution (0.05 μg/mL biotinylated CDC324 [E-cadherin] rat monoclonal antibody [Thermo Fisher ScientificTM, 13-3249-82]) was mixed with the cell suspension solution, and the cell was incubated on ice for 30 minutes. Next, the cells were washed three times with ice-cold Cell Staining Buffer, and then kept on ice until binding of barcoded DNA. […] The cell suspension solution was filtered through 40 μm cell strainer, the same number of cells from each sample was gathered in a single tube and used for cell trapping and cDNA synthesis using a BD RhapsodyTM apparatus. First, by the same method as in the above 1-3, SINGLE CELL suspension solutions of undifferentiated ES cells and differentiated ES cells were prepared. […] The stained cells were analyzed by flow cytometry using EC800 Cell Analyzer (Sony Corporation), Cyto FLEX flow cytometer (Beckman Coulter, Inc.), or […] flow cytometer (BD Biosciences). […]

[4] = system: differentiated ES cells (R1, embryoid body formation); assay: as above; format: cell-based, mouse; conditions: TotalSeq PE streptavidin detection
Procedure: After removing the feeder cells, 1×10^4 ES cells were seeded in 100 μL differentiation medium (GMEM supplemented with 15% FBS, 0.11 mg/mL sodium pyruvate, 0.1 mM 2-mercaptoethanol, 1×non-essential amino acid, and 1×GlutaMAX supplement) in a U-bottom 96-well low cell attachment plate (Nunclon Sphera 96-Well U-Shaped-Bottom Microplate; Thermo Fisher ScientificTM, 174925), and cultured for 24 hours. Spheroids made in the plate were transferred to a 90 mm, low cell attachment culture dish (Nunclon Sphera 90 mm dish, 174945), and cultured for further 4 days to form embryoid bodies (EBs). The EBs were washed three times with PBS, dissociated into […] CELLs (group of single cells) using 0.25% trypsin, the cells were seeded on a gelatin-treated culture dish, and cultured for 7 days to induce further differentiation. Single cells containing 0.5-2×10^6 […] CELLs prepared in “3. […] After incubation on ice, 3 mL ice-cold PBS containing 3% FBS was added to the reaction, and the cells were centrifuged at 4° C., 300 g for 5 minutes. The cells were further washed twice with Cell Staining Buffer (BioLegend, Inc., 420201), and then kept on ice until barcoded oligo DNA binding in the next step. […] The stained cells were analyzed by flow cytometry using EC800 Cell Analyzer (Sony Corporation), Cyto FLEX flow cytometer (Beckman Coulter, Inc.), or […] flow cytometer (BD Biosciences). […]

[5] = system: undifferentiated ES cells; assay: Cell viability test (colony formation); format: cell-based, mouse
Procedure: Undifferentiated ES cells were treated with 100 μg/mL S-NHS-biotin (10-fold the concentration used for multiplex scRNA-seq) and TotalSeq® PE streptavidin, and 3×10^3 cells were seeded on a 3.5 cm, gelatin-treated culture dish. Concurrently, the same number of untreated cells were seeded. After 5-day culture, the cells were stained with hematoxylin, and the colony formation ratios of untreated control and treated sample were examined.
A series of experimental operations by the USB method has a possibility to compromise cell states and growth. To examine this possibility, ES cells were treated by the USB method, and seeded on a culture dish to measure colony formation ability (FIG. 7). As a result, even though cells were treated with S-NHS-biotin at a concentration 10-fold the concentration used in the USB method (0.1 mg/mL), the difference of colony formation rates between the control group without labeling and the USB group were not observed. Consequently, the USB method was concluded to not change the cell viability.

[6] = Storage stability of S-NHS-biotin stock solution; format: physicochemical; conditions: stock solution at −80° C.
Procedure: A S-NHS-biotin stock solution was prepared by dissolving EZ-Link sulfo-NHS-biotin (Thermo Fisher Scientific™, 21217) in PBS at a concentration of 10 mg/mL, and dispensed and stored at […] until use.

[7] = system: mouse growth plate chondrocytes; assay: Flow cytometry of labeled growth plate chondrocytes; format: cell-based; conditions: mouse growth plate chondrocytes (FIG. 11)
Procedure: (§1) Specifically, healthy F344 rat lungs were cut into 0.5 mm^2 with razor blade, digested in a Liberase solution [RPMI-1640 (Natalai Tesque)] added with 10% FBS, 10 mM HEPES pH 7.2-7.4, 0.25 mg/ml Liberase™ (F. Hoffmann-La Roche Ltd.), and 2000 U/mL DNase I (Merck KGaA) for 60 minutes at 37° C. to prepare a SINGLE CELL suspension solution. Dead cells were removed by Percoll. Alternatively, growth plate cartilage from proximal tibia was collected from 3-week-old mice and cut finely into 1 to 2 mm pieces. Next, the cut pieces were dispersed into SINGLE CELLs (group of single cells) with Liberse™ (F. Hoffmann-La Roche Ltd.) solution for 120 to 210 minutes while continuously agitating.
(§2) Reagents for cell staining were biotinylated CDC324 (E-cadherin) rat monoclonal antibody (Thermo Fisher Scientific™, 13-3249-82), TotalSeq® PE streptavidin (BioLegend, Inc., 405251), PerCP-Cy5.5 anti-rat CD45 (Bio-Rad Laboratories, Inc., clone OX-1), PE anti-rat CD31 (Bio-Rad Laboratories, Inc., Clone TLD-3A12), streptavidin-APC (BioLegend, Inc., 405207), APC rat anti-mouse CD45 (BD Biosciences, 559864), and PE anti-mouse H-2 antibody (BioLegend, Inc., 125505).
(§3) The stained cells were analyzed by flow cytometry using EC800 Cell Analyzer (Sony Corporation), Cyto FLEX flow cytometer (Beckman Coulter, Inc.), or FACS Arria II flow cytometer (BD Biosciences).

[8] = system: rat lung cells (CD31 positive, CD45 positive, double negative); assay: Flow cytometry of USB labeling of fractionated lung cells (APC-labeled streptavidin); format: cell-based; conditions: CD45 positive and double negative fractions (FIG. 12)
Procedure: as §1, §2, §3

Chain of UniProt P09803 (P09803 157-884): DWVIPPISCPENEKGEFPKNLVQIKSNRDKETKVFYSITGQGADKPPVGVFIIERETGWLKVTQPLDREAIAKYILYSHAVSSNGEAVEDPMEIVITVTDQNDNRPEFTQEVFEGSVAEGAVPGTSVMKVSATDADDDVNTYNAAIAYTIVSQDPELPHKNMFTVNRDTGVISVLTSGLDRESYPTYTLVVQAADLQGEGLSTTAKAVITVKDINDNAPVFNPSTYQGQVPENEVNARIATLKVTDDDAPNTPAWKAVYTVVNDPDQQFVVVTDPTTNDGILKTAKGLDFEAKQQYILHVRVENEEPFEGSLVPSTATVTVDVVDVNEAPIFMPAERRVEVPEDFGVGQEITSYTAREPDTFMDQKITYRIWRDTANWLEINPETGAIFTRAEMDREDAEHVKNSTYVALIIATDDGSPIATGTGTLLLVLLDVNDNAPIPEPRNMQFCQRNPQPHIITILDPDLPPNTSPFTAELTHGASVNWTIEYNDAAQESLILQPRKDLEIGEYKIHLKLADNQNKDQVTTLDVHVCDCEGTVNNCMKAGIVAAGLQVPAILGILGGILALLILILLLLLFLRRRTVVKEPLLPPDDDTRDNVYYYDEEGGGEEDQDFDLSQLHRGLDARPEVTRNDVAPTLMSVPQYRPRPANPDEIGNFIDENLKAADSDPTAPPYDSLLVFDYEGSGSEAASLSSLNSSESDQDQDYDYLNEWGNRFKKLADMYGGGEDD

| Substance | percent PE-positive cells [1] [%] | percent PE-positive cells [2] [%] | percentage of PE-positive cells [3] [%] | percentage of PE-positive cells [4] [%] | difference of colony formation rates between the control group without labeling and the USB group ([5]; S-NHS-biotin 0.1 mg/mL (10-fold the concentration used in the USB method), 5-day culture) | effect on viability of undifferentiated ES cells ([5]; S-NHS-biotin treated vs control untreated cells (FIG. 7)) | time stock solution is stable [6] | labeling/staining of chondrocytes [7] | labeling of fractionated lung cells [8] |
| --- | --- | --- | --- | --- | --- | --- | --- | --- | --- |
| biotinylated CDC324 [E-cadherin] rat monoclonal antibody [Thermo Fisher Scientific, 13-3249-82] | 87.8 | 9.9 |  |  |  |  |  |  |  |
| sulfo-N-hydroxysuccinimide-biotin [S-NHS-biotin] |  |  | 99.6 | 96.4 | not observed | does not affect the viability | more than 1 year | efficiently labeled | All fractionated cells were found to have been labeled |
